For 3 compounds, IC50 results are on record in paper PMC3907537, “Evaluation of the Endothelin Receptor Antagonists Ambrisentan, Bosentan, Macitentan, and Sitaxsentan as Hepatobiliary Transporter Inhibitors and Substrates in Sandwich-Cultured Human Hepatocytes” (PLoS ONE, 2014).

Read-outs that look alike come from different tables or passages of the source.

The target in the experiment is T1, OATP1B3 (Homo sapiens, UniProt Q9NPD5).
T1 construct: host or cells: CHO
T1 sequence (Q9NPD5 1-702): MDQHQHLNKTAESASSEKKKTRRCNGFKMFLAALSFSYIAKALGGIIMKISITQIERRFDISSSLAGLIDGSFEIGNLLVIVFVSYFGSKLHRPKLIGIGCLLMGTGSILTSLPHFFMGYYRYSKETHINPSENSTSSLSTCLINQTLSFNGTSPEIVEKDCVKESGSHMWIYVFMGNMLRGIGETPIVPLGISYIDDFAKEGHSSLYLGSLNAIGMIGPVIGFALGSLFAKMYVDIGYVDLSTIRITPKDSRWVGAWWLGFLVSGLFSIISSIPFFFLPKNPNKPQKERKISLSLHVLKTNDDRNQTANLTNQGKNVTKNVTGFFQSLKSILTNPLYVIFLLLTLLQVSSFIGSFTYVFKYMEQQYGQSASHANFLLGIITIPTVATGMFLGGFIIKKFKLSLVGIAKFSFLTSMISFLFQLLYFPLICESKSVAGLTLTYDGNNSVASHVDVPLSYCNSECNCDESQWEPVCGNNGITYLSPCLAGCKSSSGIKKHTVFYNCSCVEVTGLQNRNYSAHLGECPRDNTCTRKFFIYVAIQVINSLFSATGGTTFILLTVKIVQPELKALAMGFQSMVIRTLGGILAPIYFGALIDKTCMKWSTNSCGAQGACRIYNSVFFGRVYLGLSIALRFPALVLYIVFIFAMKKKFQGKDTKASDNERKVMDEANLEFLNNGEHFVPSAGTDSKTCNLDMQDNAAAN
Put plainly: OATP1B3 inhibition, Fluo 3 uptake in transfected CHO cells. It counts as cell-based. The source says:
Chinese Hamster Ovary (CHO) cells were obtained from Professor B. Stieger’s laboratory at University of Zurich, Zurich, Switzerland. Madin-Darby Canine Kidney strain II (MDCKII) cells were obtained from Nederlands Kanker Instituut (NKI), Amsterdam, Netherlands. NTCP-CHO cells, BSEP and MRP2 membrane vesicles were developed and validated at Solvo Biotechnology, Budaors, Hungary.
CHO cells, either wild type or transfected with the genes encoding human NTCP, OATP1B1 and OATP1B3, were maintained in Dulbecco’s Modification of Eagle’s Medium (DMEM) containing 1,000 mg/L D-glucose, L-glutamine, 25 mM HEPES buffer, 110 mg/L sodium pyruvate, 1% Penicillin/Streptomycin, 10% fetal bovine serum (FBS), 0.05 mg/mL L proline and 0.5 mg/mL of geneticin G-418. Cells were maintained in incubators set at 37°C, 90% humidity and 5% CO2. OATP1B1 and OATP1B3 over-expressing cells were seeded in BioCoat Poly-D-Lysine coated 96-well black cell culture plates with clear bottoms at a density of 1×10^5 cells/well. Sodium butyrate (10 mM) was added to the OATP1B1 and OATP1B3 cells once seeded to increase the protein expression level and the cells were grown to confluence overnight. The assay buffer contained 142 mM NaCl, 5 mM KCl, 1 mM KH2PO4, 1.2 mM MgSO4, 1.5 mM CaCl2, 5 mM Glucose and 12.5 mM HEPES (pH 7.4). After removal of the media and before adding test compounds, the cells were washed twice with 37°C assay buffer followed by a 0.5 h pre-incubation with assay buffer. […] Wells were analyzed for Fluo 3 fluorescence at an excitation of 485 nm and emission of 530 nm. Inhibition of NTCP was studied using similar conditions to those described for OATP1B1 and OATP1B3 except that inhibition of the uptake ^3H taurocholate into transfected CHO cells was monitored using radioactive scintillation counting.
All assays were performed in duplicate. […] IC50 values were calculated using non-linear fitting of % inhibition versus concentration to a sigmoidal curve with a variable Hill Coefficient using GraphPad Prism 5 (GraphPad Software Inc., San Diego, CA).

The mark [1] stands for this setting: CHO cells, Fluo 3, mean ± SD of 3 independent studies in duplicate, tested 0.14–100 µM, read-out: OATP1B3 IC50.

As to `COC(c1ccccc1)(c1ccccc1)[C@H](Oc1nc(C)cc(C)n1)C(=O)O` [ambrisentan], 44.6 ± 23.8 µM corresponded to half-maximal inhibition (IC50). With `COc1ccccc1Oc1c(NS(=O)(=O)c2ccc(C(C)(C)C)cc2)nc(-c2ncccn2)nc1OCCO` [bosentan], under setting [1], the IC50 (usually the concentration that gives 50% inhibition) is 5.2 ± 2.1 µM. Still for that read-out and setting: next, `CCCNS(=O)(=O)Nc1ncnc(OCCOc2ncc(Br)cn2)c1-c1ccc(Br)cc1` [macitentan]: 2.1 ± 0.3 µM.
